Our source for the IC50 and Activity values is ChEMBL document CHEMBL4627299, “Computational discovery and biological evaluation of novel inhibitors targeting histone-lysine N-methyltransferase SET7” (Bioorg Med Chem, 2020).

Usually IC50 stands for the concentration needed to halve the response being measured.

Assay [1] addresses T1, Histone-lysine N-methyltransferase NSD2 (Homo sapiens, UniProt O96028).
T1 sequence (O96028 whole entry): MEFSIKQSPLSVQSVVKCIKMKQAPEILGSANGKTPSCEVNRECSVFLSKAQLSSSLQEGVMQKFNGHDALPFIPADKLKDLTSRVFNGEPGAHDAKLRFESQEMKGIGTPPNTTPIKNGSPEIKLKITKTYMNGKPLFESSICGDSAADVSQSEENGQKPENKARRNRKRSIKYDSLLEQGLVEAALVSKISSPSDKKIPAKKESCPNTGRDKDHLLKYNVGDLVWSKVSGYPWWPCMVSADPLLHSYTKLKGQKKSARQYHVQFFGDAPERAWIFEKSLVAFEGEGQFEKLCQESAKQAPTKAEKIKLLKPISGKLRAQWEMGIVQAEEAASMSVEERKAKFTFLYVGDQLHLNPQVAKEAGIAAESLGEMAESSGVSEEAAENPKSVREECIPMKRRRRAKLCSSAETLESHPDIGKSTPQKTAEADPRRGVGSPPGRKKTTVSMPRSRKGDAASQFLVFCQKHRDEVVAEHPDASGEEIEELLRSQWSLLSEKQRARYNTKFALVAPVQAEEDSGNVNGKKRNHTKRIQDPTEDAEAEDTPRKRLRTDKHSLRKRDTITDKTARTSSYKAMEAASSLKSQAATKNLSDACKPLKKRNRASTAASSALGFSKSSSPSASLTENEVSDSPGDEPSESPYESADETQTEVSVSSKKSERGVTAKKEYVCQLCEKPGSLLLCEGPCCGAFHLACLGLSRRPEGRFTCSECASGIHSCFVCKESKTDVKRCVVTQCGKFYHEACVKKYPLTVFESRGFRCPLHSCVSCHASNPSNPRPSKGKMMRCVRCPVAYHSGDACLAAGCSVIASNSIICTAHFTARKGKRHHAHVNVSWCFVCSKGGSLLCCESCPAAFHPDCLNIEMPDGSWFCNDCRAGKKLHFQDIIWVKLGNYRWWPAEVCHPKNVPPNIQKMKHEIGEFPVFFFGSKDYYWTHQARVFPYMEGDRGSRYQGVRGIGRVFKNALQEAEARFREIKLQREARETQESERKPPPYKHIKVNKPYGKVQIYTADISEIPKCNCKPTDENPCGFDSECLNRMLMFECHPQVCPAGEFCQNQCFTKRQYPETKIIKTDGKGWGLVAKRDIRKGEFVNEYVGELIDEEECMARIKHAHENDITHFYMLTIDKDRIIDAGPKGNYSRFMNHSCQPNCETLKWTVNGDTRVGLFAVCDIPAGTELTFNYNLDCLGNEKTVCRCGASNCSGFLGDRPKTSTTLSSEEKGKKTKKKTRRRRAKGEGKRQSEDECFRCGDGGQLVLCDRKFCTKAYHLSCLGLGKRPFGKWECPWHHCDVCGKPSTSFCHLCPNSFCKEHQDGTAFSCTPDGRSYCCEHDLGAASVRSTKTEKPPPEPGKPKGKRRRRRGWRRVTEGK
The assay is described as follows: Inhibition of NSD2 (unknown origin) preincubated for 15 mins followed by addition of [3H]-SAM as substrate and peptide solution after 240 mins cold SAM was added measured by radioisotope assay.

The target of assay [2] is T2, Histone-lysine N-methyltransferase SETD7 (Homo sapiens, UniProt Q8WTS6).
T2 sequence (Q8WTS6 whole entry): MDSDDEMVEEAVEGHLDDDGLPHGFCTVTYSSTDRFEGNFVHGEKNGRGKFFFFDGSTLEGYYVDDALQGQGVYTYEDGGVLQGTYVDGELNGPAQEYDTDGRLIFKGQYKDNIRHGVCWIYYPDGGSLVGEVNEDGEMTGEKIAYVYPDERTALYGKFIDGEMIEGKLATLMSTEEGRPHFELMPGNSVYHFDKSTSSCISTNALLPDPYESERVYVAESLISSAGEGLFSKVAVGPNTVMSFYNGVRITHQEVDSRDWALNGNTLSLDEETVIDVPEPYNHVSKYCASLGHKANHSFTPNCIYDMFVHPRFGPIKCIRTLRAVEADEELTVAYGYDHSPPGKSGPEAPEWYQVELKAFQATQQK
Briefly: Inhibition of human SET7 overexpressed in Escherichia coli BL21 (DE3) cells preincubated for 15 mins followed by addition of SAM as substrate and biotinylated Histone H3 (1-50) peptide measured after 30 mins by AlphaLISA assay relative to control.

The target of assay [3] is Histone-lysine N-methyltransferase 2A (Homo sapiens, UniProt Q03164). Briefly: Inhibition of MLL1 (unknown origin) preincubated for 15 mins followed by addition of substrate measured after 1 hr by AlphaLISA assay. Background: Bead proximity is the source of the signal in Alpha formats.
For assay [4], the system named is MV4-11. The assay is described as follows: Antiproliferation activity against human MV4-11 cells assessed as reduction in cell viability measured by Cell-titer-Glo assay. The format is functional, cell-based.
Assay [5] has as its system HeLa. The assay is described as follows: Antiproliferation activity against human HeLa cells assessed as reduction in cell viability measured by Cell-titer-Glo assay. Format: functional, cell-based.
For assay [6], the species on record is Homo sapiens. The assay is described as follows: Antiproliferation activity against human UMCHOR1 cells assessed as reduction in cell viability measured by Cell-titer-Glo assay. Format: functional, cell-based.
Assay [7] concerns MDA-MB-231. Briefly: Antiproliferation activity against human MDA-MB-231 cells assessed as reduction in cell viability measured by Cell-titer-Glo assay. Format: functional, cell-based.
The target in assay [8] is T3, Histone-lysine N-methyltransferase SMYD3 (Homo sapiens, UniProt Q9H7B4).
T3 sequence (Q9H7B4 whole entry): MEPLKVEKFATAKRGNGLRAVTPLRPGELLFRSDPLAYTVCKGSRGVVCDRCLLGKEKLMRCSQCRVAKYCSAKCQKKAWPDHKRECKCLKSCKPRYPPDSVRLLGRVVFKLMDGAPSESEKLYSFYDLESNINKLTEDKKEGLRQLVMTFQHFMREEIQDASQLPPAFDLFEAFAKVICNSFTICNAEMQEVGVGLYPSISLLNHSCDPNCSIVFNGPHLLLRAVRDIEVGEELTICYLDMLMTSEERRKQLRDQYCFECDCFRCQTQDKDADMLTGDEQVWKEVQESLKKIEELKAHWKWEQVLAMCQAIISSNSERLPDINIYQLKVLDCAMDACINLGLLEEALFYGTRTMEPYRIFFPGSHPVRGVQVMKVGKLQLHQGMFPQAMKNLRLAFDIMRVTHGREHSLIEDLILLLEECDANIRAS
Briefly: Inhibition of SMYD3 (unknown origin) preincubated for 15 mins followed by addition of [3H]-SAM as substrate and peptide solution after 240 mins cold SAM was added measured after 1 hr by radioisotope assay.

Assay [9] concerns A549. The assay is described as follows: Antiproliferation activity against human A549 cells assessed as reduction in cell viability measured by Cell-titer-Glo assay. Format: functional, cell-based.
Assay [10] has as its system MCF7. Briefly: Antiproliferation activity against human MCF7 cells assessed as reduction in cell viability measured by Cell-titer-Glo assay. Format: functional, cell-based.
For assay [11], the target named is T4, Histone-lysine N-methyltransferase EZH1 (Homo sapiens, UniProt Q92800).
T4 sequence (Q92800 whole entry): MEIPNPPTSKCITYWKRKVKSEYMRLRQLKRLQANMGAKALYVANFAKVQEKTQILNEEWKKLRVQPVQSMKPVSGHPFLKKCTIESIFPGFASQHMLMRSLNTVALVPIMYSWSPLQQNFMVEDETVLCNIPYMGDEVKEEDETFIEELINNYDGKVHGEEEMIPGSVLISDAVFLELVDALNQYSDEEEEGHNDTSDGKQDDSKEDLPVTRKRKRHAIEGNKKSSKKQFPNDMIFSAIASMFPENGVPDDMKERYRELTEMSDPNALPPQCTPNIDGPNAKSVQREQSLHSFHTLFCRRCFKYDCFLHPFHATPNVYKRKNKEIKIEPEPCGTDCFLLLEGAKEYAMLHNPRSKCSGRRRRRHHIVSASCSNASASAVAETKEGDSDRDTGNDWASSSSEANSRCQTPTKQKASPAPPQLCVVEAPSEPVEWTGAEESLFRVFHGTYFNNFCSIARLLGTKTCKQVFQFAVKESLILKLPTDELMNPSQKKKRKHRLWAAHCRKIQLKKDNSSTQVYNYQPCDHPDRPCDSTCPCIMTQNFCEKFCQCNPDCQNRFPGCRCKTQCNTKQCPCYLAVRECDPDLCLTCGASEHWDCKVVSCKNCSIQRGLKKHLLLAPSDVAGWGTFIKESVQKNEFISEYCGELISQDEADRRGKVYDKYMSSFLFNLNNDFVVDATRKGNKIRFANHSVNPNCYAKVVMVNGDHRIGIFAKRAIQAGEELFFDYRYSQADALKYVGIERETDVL
The assay is described as follows: Inhibition of Ezh1 (unknown origin) preincubated for 15 mins followed by addition of substrate measured after 1 hr by AlphaLISA assay.

The source made the active and inactive calls. The calls are words filed in the database; no cut-off is given here.

Sequence of Histone-lysine N-methyltransferase 2A (Q03164 1-2718 limits assumed): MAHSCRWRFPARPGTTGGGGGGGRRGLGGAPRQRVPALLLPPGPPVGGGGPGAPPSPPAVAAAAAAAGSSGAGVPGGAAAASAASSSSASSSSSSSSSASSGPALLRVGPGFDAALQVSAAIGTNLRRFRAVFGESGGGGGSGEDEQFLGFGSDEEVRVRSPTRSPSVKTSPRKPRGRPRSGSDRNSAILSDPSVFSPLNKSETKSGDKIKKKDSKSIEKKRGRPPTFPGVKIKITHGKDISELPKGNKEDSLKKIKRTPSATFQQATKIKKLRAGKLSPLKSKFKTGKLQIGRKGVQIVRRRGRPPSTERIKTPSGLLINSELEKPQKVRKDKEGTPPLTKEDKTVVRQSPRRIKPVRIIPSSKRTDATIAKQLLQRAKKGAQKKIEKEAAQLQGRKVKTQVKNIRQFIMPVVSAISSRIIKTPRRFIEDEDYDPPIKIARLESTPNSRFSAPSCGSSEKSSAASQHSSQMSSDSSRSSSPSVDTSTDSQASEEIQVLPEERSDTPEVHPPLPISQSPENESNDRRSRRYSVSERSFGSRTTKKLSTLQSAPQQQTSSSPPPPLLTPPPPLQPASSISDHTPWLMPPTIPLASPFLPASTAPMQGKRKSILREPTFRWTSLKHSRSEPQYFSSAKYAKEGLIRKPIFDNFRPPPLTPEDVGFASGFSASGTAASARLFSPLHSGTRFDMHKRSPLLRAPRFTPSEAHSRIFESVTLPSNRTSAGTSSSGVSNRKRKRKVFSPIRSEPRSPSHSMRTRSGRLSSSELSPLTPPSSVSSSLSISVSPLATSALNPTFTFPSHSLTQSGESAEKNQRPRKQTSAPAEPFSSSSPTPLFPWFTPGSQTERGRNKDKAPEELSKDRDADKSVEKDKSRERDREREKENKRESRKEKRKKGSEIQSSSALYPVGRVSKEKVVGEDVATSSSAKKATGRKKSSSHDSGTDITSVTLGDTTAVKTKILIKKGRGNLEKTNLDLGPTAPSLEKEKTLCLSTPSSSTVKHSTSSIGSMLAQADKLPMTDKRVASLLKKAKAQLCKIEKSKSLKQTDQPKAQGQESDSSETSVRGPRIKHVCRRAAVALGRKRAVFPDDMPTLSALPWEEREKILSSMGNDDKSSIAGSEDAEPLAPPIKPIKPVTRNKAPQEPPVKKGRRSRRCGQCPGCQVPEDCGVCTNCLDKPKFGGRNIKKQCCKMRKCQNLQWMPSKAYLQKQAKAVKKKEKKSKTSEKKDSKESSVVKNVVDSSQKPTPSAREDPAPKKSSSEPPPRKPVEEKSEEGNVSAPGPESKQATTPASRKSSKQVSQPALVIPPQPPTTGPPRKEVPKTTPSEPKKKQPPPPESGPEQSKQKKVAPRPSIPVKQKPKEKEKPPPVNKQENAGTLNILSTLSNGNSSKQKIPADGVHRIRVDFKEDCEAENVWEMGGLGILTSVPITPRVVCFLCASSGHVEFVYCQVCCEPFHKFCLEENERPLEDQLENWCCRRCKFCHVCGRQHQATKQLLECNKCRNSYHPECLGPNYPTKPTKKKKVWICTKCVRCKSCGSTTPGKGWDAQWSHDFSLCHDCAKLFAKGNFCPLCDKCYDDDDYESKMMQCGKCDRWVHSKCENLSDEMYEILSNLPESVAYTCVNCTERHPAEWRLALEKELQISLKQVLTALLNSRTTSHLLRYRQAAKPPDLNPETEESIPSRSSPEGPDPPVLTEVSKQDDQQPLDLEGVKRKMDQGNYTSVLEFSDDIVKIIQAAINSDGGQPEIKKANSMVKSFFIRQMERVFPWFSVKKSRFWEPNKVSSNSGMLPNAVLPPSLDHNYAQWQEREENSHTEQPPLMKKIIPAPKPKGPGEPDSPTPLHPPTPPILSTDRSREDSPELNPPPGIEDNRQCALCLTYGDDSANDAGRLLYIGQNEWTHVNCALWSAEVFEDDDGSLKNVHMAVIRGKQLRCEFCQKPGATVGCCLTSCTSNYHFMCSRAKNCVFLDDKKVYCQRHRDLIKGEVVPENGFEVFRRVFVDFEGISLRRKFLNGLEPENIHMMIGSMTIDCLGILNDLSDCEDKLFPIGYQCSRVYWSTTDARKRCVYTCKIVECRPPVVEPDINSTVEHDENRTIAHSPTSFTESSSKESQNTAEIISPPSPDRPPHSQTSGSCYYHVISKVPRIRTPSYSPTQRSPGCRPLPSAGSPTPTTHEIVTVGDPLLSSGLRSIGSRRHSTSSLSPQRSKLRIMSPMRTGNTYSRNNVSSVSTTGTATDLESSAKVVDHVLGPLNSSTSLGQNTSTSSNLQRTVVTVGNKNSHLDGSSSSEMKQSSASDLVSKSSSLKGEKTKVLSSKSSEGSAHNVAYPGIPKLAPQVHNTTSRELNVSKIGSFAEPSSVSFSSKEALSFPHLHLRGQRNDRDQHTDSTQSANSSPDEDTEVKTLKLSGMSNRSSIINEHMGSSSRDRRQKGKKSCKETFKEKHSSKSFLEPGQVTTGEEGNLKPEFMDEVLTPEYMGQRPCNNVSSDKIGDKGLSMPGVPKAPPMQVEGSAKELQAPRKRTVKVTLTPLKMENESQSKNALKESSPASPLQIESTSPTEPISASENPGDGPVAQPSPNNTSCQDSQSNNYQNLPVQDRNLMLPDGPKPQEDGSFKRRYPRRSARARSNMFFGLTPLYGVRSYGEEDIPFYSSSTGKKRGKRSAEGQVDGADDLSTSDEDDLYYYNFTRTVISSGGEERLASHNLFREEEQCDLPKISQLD
Sequence of Histone-lysine N-methyltransferase 2A (Q03164 2719-3969 limits assumed): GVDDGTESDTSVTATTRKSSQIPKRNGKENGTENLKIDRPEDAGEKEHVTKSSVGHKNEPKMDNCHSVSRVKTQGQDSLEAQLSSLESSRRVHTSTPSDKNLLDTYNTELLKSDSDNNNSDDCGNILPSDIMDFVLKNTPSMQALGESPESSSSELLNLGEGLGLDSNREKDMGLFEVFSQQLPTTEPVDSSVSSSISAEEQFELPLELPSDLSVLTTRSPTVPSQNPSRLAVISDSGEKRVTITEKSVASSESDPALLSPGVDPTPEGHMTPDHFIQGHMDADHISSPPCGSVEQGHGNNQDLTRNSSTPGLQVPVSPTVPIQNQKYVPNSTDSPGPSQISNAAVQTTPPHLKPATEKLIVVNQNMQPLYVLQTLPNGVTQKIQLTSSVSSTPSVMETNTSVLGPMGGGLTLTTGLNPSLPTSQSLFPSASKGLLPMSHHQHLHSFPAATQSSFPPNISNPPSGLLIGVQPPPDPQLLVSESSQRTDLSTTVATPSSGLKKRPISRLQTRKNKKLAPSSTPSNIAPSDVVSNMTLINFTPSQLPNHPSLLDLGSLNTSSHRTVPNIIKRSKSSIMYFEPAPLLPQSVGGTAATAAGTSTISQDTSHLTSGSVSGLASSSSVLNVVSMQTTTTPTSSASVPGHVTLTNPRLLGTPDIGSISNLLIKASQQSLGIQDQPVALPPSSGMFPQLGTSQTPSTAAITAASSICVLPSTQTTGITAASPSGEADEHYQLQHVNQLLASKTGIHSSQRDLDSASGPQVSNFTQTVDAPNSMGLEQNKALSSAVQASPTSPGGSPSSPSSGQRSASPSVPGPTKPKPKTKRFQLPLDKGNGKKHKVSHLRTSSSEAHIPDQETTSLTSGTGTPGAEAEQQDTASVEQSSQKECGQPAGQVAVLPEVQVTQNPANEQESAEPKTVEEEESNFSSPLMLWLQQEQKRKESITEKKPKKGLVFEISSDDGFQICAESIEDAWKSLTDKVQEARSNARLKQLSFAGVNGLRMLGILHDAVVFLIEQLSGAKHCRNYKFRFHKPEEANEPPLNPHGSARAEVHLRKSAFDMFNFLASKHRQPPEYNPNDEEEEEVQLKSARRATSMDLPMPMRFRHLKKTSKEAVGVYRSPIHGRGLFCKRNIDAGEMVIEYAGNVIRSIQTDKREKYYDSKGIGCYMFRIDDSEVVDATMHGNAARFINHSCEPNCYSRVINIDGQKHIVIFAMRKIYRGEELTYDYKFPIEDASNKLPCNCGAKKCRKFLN

Consider `O=c1cc(-c2ccc(O)cc2)oc2cc(O)c(O)c(O)c12` [SCUTELLAREIN], for which the IC50 was determined as 2.65 µM in assay [1]; 1.96 µM in assay [2]; 2.92 µM in assay [3]; 27.1 µM in [4]; 18.2 µM in assay [8]; 8.77 µM in assay [11]. Further, the result in [5], in assay [6], in assay [7], in [9] and in [10] was inactive.
